# In PubChem BioAssay (NCI):
# Values joined by “and” are separate entries in the source; they are usually repeats but may differ in a detail not shown here. Equal entries are not always repeated.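 Step 1: Grow cells in 96-well plates. Step 2: Expose to compound for 48 hours at 5 concentrations. Step 3: Interpolate endpoints linearly; if unreached, use highest concentration. GI50 is the concentration that inhibits growth by half. TGI marks complete inhibition of growth.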
# What was measured:
# Assay in all cases: growth of human tumour cells (NCI), 48 h
# M14 melanoma = tested on: M14 melanoma
# HCT-15 colon = tested on: HCT-15 colon
# K-562 leukemia = tested on: K-562 leukemia
# ACHN renal = tested on: ACHN renal
# KM12 colon = tested on: KM12 colon
# A549 NSCLC = tested on: A549 NSCLC
# OVCAR-5 ovarian = tested on: OVCAR-5 ovarian
# NCI-H226 lung = tested on: NCI-H226 lung
# HS 578T breast = tested on: HS 578T breast
SMILES,TGI (M14 melanoma) [µM],TGI (HCT-15 colon),TGI (K-562 leukemia) [µM],TGI (ACHN renal) [µM],TGI (KM12 colon),TGI (A549 NSCLC) [µM],TGI (OVCAR-5 ovarian) [µM],TGI (NCI-H226 lung) [µM],GI50 (M14 melanoma) [µM],GI50 (HCT-15 colon) [µM],GI50 (OVCAR-5 ovarian) [µM],GI50 (NCI-H226 lung) [µM],GI50 (K-562 leukemia) [µM],GI50 (ACHN renal) [µM],GI50 (KM12 colon),GI50 (A549 NSCLC) [µM],GI50 (HS 578T breast) [µM]
CCCCCCCCCC(=O)OCC1OC(n2cc(F)c(=O)[nH]c2=O)C(N)C(OC(=O)CCCCCCCCC)C1O (stereo not given),34.3,34.7 µM,36.7,> 100,41.2 µM,34.1,,,,,,,,,,,
Clc1ccc2nc(CCSCCc3nc4ccc(Cl)cc4[nH]3)[nH]c2c1,26.5,26.5 µM,38.3,11.4,29.7 µM,24.9,25.2,41.8,,,,,,,,,
O=C(O)/C(Cl)=C(\Cl)C(=O)Nc1ccccc1,> 100,> 100 µM,> 100,> 100,> 100 µM,> 100,> 100,> 100,,,,,,,,,
Nc1nc(N)c(-c2ccc(Cl)cc2)c(CCC(=O)Nc2cccc(C(F)(F)F)c2)n1,> 100,> 100 µM,> 100,> 100,> 100 µM,> 100,> 100,> 100,,,,,,,,,
COc1ccc2c(c1)[n+]([O-])c(-c1nc3ccccc3s1)c(N)[n+]2[O-],> 100,> 100 µM,> 100,> 100,> 100 µM,> 100,> 100,> 100,,,,,,,,,
CC12CC3CC(C)(C1)CC(N=[N+]=[N-])(C3)C2,> 100,,> 100,> 100,> 100 µM,> 100,> 100,> 100,,,,,,,,,
COC(=O)C1C(=O)O[C@@H](c2ccc(OC)cc2OC)C1C(=O)OC (stereo not given in full),> 100,> 100 µM,> 100,> 100,> 100 µM,> 100,> 100,> 100,,,,,,,,,
CN=S(=O)(C[C@]1(O)CC2OC1C1OC(C)(C)OC21)c1ccccc1 (stereo not given in full),> 100,> 100 µM,> 100,> 100,> 100 µM,> 100,> 100,> 100,,,,,,,,,
CCN(CC)c1ccc2c(c1)N=C1N=CC=CN1C2(c1ccc(N(C)C)cc1)c1ccc(N(C)C)cc1,10.5,28.1 µM,5.96,16.1,15.6 µM,28,27.4,27.2,,,,,,,,,
O=C(C=Nc1ccccc1C(=O)[O-])c1cccs1.O=C(C=Nc1ccccc1C(=O)[O-])c1cccs1.[Cu+2],> 100,> 100 µM,> 100,> 100,> 100 µM,> 100,> 100,,,,,,,,,,
CCCCCCCCCCCC(=O)OCC1OC(n2cc(F)c(=O)[nH]c2=O)C(N)C(O)C1O (stereo not given),> 100,> 100 µM,> 100,> 100,> 100 µM,> 100,> 100,> 100,,,,,,,,,
O=C(CC(=O)C(F)(F)F)c1csc2ccccc12,68.9,> 100 µM,> 100,> 100,> 100 µM,> 100,> 100,,,,,,,,,,
COC(=O)C1=CC2OC13CC1CCC3(C2=O)C1(C)C (stereo not given),28.3,18.9 µM,56.4,21.2,30.6 µM,92.7,33.2,34.2,,,,,,,,,
CCC[CH2][Sn]([CH2]CCC)([S]C1=NCCS1)[S]C1=NCCS1,1.24,1.74 µM,1.05,1.31,2.28 µM,3.55,3.78,2.12,0.315,0.338,2.29,0.741,0.0655,0.368,1.02 µM,1.85,
Nc1ccn([C@@H]2C=C(CO)[C@@H](O)[C@H]2O)c(=O)n1,,483 µM and > 625 µM,335,500,500 µM and > 625 µM,,,493,0.329,,0.13,0.501,0.0189,0.05,0.16 µM and 0.0625 µM,,4.56
Cc1cc(C)n(-c2c(O)ccc(O)c2-n2nc(C)cc2C)n1,> 100,> 100 µM,> 100,> 100,> 100 µM,> 100,> 100,,,,,,,,,,
CC(=O)Nc1ccc(/C=C/C(=O)c2sc(C(N)=S)nc2C)cc1,,> 100 µM,> 100,,> 100 µM,> 100,> 100,> 100,,,,,,,,,
